These results are taken from patent publication US7199136B2, “1,4-dihydro-1,4-diphenylpyridine derivatives” (Bayer HealthCare AG, priority 2001, dated 2007).

In test [1] the test system is human polymorphonuclear cells (PMNs). As to the kind of experiment: In vitro PMN elastolysis assay (tritiated elastin). In kind it is cell-based. As for the experimental part:
II. In Vitro PMN Elastolysis Assay
This assay is used to determine the elastolytic potential of human polymorphonuclear cells (PMNs) and assess the proportion of degradation due to neutrophil elastase [cf. Z. W. She et al., Am. J. Respir. Cell. Mol. Biol. 9, 386–392 (1993)].
Tritiated elastin, in suspension, is coated on to a 96 well plate at 10 μg per well. Test and reference [ZD-0892 (J. Med. Chem. 40, 1876–1885, 3173–3181 (1997), WO 95/21855) and α1 protease inhibitor (α1PI)] compounds are added to the wells at the appropriate concentrations. Human PMNs are separated from peripheral venous blood of healthy donors and resuspended in culture media. […] Porcine pancreatic elastase (1.3 μM is used as a positive control for the assay, and α1PI (1.2 μM) is used as the positive inhibitor of neutrophil elastase. The cellular control is PMNs without compound at each appropriate cell density. The cells plus compounds are incubated in a humidified incubator at 37° C. for 4 hours. The plates are centrifuged to allow the harvest of cell supernatant only. The supernatant is transferred in 75 μl volumes to corresponding wells of a 96 well Lumaplate™ (solid scintillant containing plates). The plates are dried until no liquid is visible in the wells and read in a beta counter for 3 minutes per well. […]

Test [2] has as its target T1, human neutrophil elastase (HNE) (Homo sapiens, UniProt P08246).
T1 construct: purchased SERVA Electrophoresis GmbH, Heidelberg, Germany #20927.01
T1 sequence (P08246 30-267): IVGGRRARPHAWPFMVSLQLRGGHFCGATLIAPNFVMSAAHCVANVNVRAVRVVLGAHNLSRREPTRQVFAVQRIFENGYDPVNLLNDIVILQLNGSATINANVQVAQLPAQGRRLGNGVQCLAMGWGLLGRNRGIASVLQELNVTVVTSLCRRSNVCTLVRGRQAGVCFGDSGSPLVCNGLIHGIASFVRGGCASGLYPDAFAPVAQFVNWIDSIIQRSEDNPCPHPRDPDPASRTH
As to the kind of experiment: In vitro inhibition of HNE using a fluorogenic peptide substrate (MeOSuc-Ala-Ala-Pro-Val-AMC), 384 MTP format. In kind it is biochemical. As to conditions: 37° C. As for the experimental part:
I. In Vitro Assays of Human Neutrophil Elastase (HNE)
The test solution is prepared by mixing 10 μl of test compound dilution, 20 μl of HNE enzyme dilution (final concentration 8–0.4 μU/ml, routinely 2.1 μU/ml) and 20 μl of substrate dilution (final concentration 1 mM–1 μM, routinely 20 μM), respectively. The solution is incubated for 0–2 hrs at 37° C. (routinely one hour). The fluorescence of the liberated AMC due to the enzymatic reaction is measured at 37° C. (TECAN spectra fluor plus plate reader). […] IC50 values are determined by RFU-versus-[I] plots. Km and Km(app.) values are determined by Lineweaver-Burk plots and converted to Ki values by Dixon plots.

As to “α1PI: α1 protease inhibitor, used as the positive inhibitor of neutrophil elastase”, the “inhibition of 3H-elastin elastolysis (mean±s.e.m.)” value in test [1] (at 1.2 μM, n=3 different donors at 3.6×10^5 cells per well, 4 hours at 37° C.) turned out to be 83.46±3.97%.
The IC50 is the concentration needed to halve the response being measured. In test [2], `CC(=O)C1=C(C)N(c2cccc(C(F)(F)F)c2)C(N)=C(C#N)C1c1ccc(C#N)cc1` (stereo not shown) [Example 15, 5-Acetyl-2-amino-4-(4-cyanophenyl)-6-methyl-1-[3-(trifluoromethyl)phenyl]-1,4-dihydro-3-pyridinecarbonitrile] had an IC50 of 120 nM.
On the same count and under the same terms, the value for `CC(=O)C1=C(C)N(c2cccc(C(F)(F)F)c2)C(=N)C(C(=O)N(C)C)C1c1ccc(C#N)cc1` (stereo not shown) [Example 14, 5-Acetyl-4-(4-cyanophenyl)-2-imino-N,N,6-trimethyl-1-[3-(trifluoromethyl)phenyl]-1,2,3,4-tetrahydro-3-pyridinecarboxamide] was 20 nM.
`COc1ccc(C(=O)N[C@H](C(=O)N2CCC[C@H]2C(=O)N[C@H](C(=O)C(F)(F)F)C(C)C)C(C)C)cc1` [ZD-0892, reference compound]: the IC50 in test [1] (n=2 different donors at 3.6×10^5 cells per well, read-out: IC50 (mean±s.e.m.) of elastolysis inhibition) stood at 45.5 ± 7.75 nM.
In test [2], `CC(=O)C1=C(C)N(c2cccc(C(F)(F)F)c2)C(N)=C(C(N)=O)C1c1ccc(C#N)cc1` (stereo not shown) [Example 13, 5-Acetyl-2-amino-4-(4-cyanophenyl)-6-methyl-1-[3-(trifluoromethyl)phenyl]-1,4-dihydro-3-pyridinecarboxamide] showed an IC50 of 30 nM.
The same measure, in the same setting: with `CCOC(=O)C1=C(C)N(c2cccc(C(F)(F)F)c2)C(C)=C(C(C)=O)C1c1ccc(C#N)cc1` (racemic) [Example 10, (±)-Ethyl 5-acetyl-4-(4-cyanophenyl)-2,6-dimethyl-1-[3-(trifluoromethyl)phenyl]-1,4-dihydro-3-pyridinecarboxylate] the figure was 230 nM.
On the same count and under the same terms, with `CCOC(=O)C1=C(N)N(c2cccc(C)c2)C(C)=C(C(C)=O)C1c1ccc(C#N)cc1` (stereo not shown) [Example 12, Ethyl 5-acetyl-2-amino-4-(4-cyanophenyl)-6-methyl-1-[3-methylphenyl]-1,4-di-hydro-3-pyridinecarboxylate] the figure was 180 nM; with `CCOC(=O)C1=C(N)N(c2cccc(CN(CC)CC)c2)C(C)=C(C(C)=O)C1c1ccc(C#N)cc1` (stereo not shown) [Example 17, Ethyl 5-acetyl-2-amino-4-(4-cyanophenyl)-1-{3-[(diethylamino)methyl]phenyl}-6-methyl-1,4-dihydro-3-pyridinecarboxylate], 9000 nM.
Same read-out and setting: with `CCOC(=O)C1=CN(c2cccc(C(F)(F)F)c2)C(C)=C(C(C)=O)C1c1ccc(C#N)cc1` (racemic) [Example 8, (±)-Ethyl 5-acetyl-4-(4-cyanophenyl)-6-methyl-1-[3-(trifluoromethyl)phenyl]-1,4-dihydro-3-pyridinecarboxylate] the figure was 330 nM; with `CCOC(=O)C1=C(N)N(c2cc(OC)cc(C(F)(F)F)c2)C(C)=C(C(C)=O)C1c1ccc(C#N)cc1` (stereo not shown) [Example 18, Ethyl 5-acetyl-2-amino-4-(4-cyanophenyl)-1-[3-methoxy-5-(trifluoromethyl)phenyl]-6-methyl-1,4-dihydro-3-pyridinecarboxylate], 30 nM.
